Experimental data reported in PubChem BioAssay AID2744 (NMMLSC, 2010).
Calls of active or inactive are those of the source.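 The calls were made as follows: active = fitted half-maximal concentration for changing reporter fluorescence at or below a set limit; inactive = the rest.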

Biological target: Citrate synthase, peroxisomal (Saccharomyces cerevisiae (strain ATCC 204508 / S288c)) (UniProt P08679)
Assay: CIT2-GFP expression modulators in yeast, dose response, flow cytometry, MLPCN hits (AID 2744)
Settings: S. cerevisiae CIT2-GFP strain, 3 h; for GFP fluorescence, higher = induction: at 33 µM (top of the series); for EC50: flow cytometry fluorescence

Citrate synthase, peroxisomal (Saccharomyces cerevisiae (strain ATCC 204508 / S288c)), sequence (P08679 whole entry, looked up): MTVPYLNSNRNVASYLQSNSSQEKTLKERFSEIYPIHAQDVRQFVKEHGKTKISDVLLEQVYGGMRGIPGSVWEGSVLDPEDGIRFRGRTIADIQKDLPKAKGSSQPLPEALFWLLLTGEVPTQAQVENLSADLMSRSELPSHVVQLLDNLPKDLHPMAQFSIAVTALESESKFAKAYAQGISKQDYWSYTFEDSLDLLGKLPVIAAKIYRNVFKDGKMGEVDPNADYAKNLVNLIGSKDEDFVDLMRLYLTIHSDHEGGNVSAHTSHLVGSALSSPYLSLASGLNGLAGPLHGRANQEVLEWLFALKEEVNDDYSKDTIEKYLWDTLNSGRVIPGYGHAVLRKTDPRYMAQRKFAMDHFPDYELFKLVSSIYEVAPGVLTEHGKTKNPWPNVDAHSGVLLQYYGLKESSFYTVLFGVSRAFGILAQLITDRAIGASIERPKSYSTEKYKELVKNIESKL

Row | SMILES | GFP fluorescence, higher = induction | EC50
1 | Cc1ccc(-c2nc(C)sc2CC(=O)Nc2nnc(C)s2)cc1 | inactive | –
2 | O=c1c2cnn(-c3ccccc3)c2ncn1Cc1ccco1 | inactive | –
3 | Cc1cc(Br)c2c(c1)/C(=C/C(=O)c1cccs1)C(=O)N2 | inactive | –
4 | N/C(Cc1ccc(Cl)cc1Cl)=N\OC(=O)c1cccs1 | – | 1.48 µM
5 | CCOC(=O)C1=C(O)c2ccccc2C(=O)/C1=C\c1ccc(C)cc1 | inactive | –
6 | CCOC(=O)c1cc(-c2ccc(/C=C3/C(=O)NC(=O)C(C#N)=C3C)o2)ccc1Cl | inactive | –
7 | O=c1cc(-c2ccccc2)cc(-c2ccccc2)n1O | inactive | –
8 | O=C(Nc1nc2ccc(F)cc2s1)c1ccccn1 | inactive | –
9 | COc1ccccc1C(=O)NNC(=S)NC(=O)c1cccs1 | inactive | –
10 | C=CCn1c(C)c(/C=C/c2cc[n+](C)cc2)c2ccccc21 | inactive | –
11 | Cc1[nH]c2ccccc2c1C(=O)COC(=O)c1ccc([N+](=O)[O-])s1 | inactive | –
12 | COc1ccc(-c2cc(C(F)(F)F)nc(S(C)(=O)=O)n2)cc1 | inactive | –
13 | O=[N+]([O-])c1cc(Cl)c2cccnc2c1O | inactive | –
14 | O=C1C=CC(=O)N1c1ccc(Sc2ccc([N+](=O)[O-])cc2)cc1 | inactive | –
15 | Cc1ccc(N=Nc2ccc(O)c3ncccc23)cc1 | inactive | –
16 | Cc1ccccc1[C@@]1(C)ON(c2ccccc2C(F)(F)F)C1=O | inactive | –
17 | COc1cccc(/C=C/C(=O)c2c(O)cc(C)oc2=O)c1O | inactive | –
18 | Cc1ccc(N/N=C(\C#N)C(N)=S)c(C)c1 | inactive | –
19 | Cc1ccc(NC(=O)CCc2ccccc2)cc1S(=O)(=O)N1CCOCC1 | inactive | –
20 | c1ccc(-c2cccc(-c3ccccn3)n2)nc1 | inactive | –
21 | CC(=O)SC(C[N+](=O)[O-])c1cn(C(C)=O)c2ccccc12 (stereo unspecified) | inactive | –

Row | SMILES | GFP fluorescence, higher = induction | EC50
22 | O=C(c1ccc(Cl)c([N+](=O)[O-])c1)N1CCN(c2ccccc2)CC1 | inactive | –
23 | COc1cc(N=c2ssnc2Cl)cc(OC)c1 | inactive | –
24 | CN(C)c1ccc(/C=C/c2cc[n+](C)cc2)cc1 | inactive | –
25 | CN(C)C(=O)Oc1ccnc2cc(Cl)ccc12 | inactive | –
26 | CCN(CC)C(=S)SSC(=S)N(CC)CC | inactive | –
27 | CC(C)(C)C(=O)NC(=S)NNC(=O)c1sc2ccccc2c1Cl | inactive | –
28 | CCOc1ccc(N/N=C(/C#N)C(N)=O)cc1 | inactive | –
29 | O=C(CS(=O)c1ccccc1[N+](=O)[O-])Oc1ccc(Br)cc1 (stereo unspecified) | inactive | –
30 | O=C(Nc1cccc(C(F)(F)F)c1)Oc1ccc(Cl)c2cccnc12 | inactive | –
31 | CCOC(=O)CSC1=NC(=O)/C(=C\c2ccc(Cl)cc2)S1 | inactive | –
32 | Oc1c(Br)cc(Br)cc1C=Nc1ccc2[nH]ncc2c1 | inactive | –
33 | Oc1ccc(CNc2ccccc2)c2cccnc12 | inactive | –
34 | Cc1ccc2nc(Cl)c3nnnn3c2c1 | inactive | –
35 | COc1ccc(/C=C2\C(=O)ON=C2c2ccccc2)cc1 | inactive | –
36 | O=C(c1ccccn1)c1conc1C(=O)c1ccc(Br)cc1 | inactive | –
37 | Cc1ccc(O)c(N=Nc2nccs2)c1 | – | 11.3 µM
38 | O=C(Sc1cccc2cccnc12)c1ccccc1Br | inactive | –
39 | Cc1ccc(/C=C2/SC(=S)N(C3CCCCC3)C2=O)o1 | inactive | –
40 | O=[N+]([O-])c1cc(CN2CCN(c3ccccc3)CC2)c(O)c2ncccc12 | inactive | –
41 | COc1cc(CNC(=O)CCCCCCC(C)C)ccc1O | inactive | –
